Columns and labels:
Experiment in all cases: Viral plaque reduction assay, sensitivity to acyclovir
Format in all cases: cell-based, herpes simplex virus type 2
HSV-2 186 = conditions: Human alphaherpesvirus 2; HSV-2 186 on Vero cells, plaques after 72 hours; read-out: IC50 (50% inhibitory concentration) of acyclovir
Description: (§1) Each of the viruses were plated on Vero cell monolayers in the presence of various concentrations (0-16 μM) of acyclovir. Plaques that formed after 72 hours post infection were counted and the data was used to generate the IC50 of ACV for each virus.
(§2) Plaque reduction assay. Plaque reduction assay was used as described previously (Visalli et al., 2003) with the following modifications. Vero cells were infected with approximately 50 to 100 PFU of virus per well. Acyclovir (ACV) was diluted to the desired concentrations in Dulbecco's Modified Eagle Medium (DMEM) and applied to uninfected Vero monolayers for a thirty minute pre-incubation before the addition of virus. Positive control wells received virus without ACV. Monolayers were incubated for three days at 37° C., fixed, and stained. Plaques were counted, and the data are presented as the mean of at least three independent assays.

UL24Δ = conditions: Human alphaherpesvirus 2; UL24Δ on Vero cells, plaques after 72 hours; read-out: IC50 (50% inhibitory concentration) of acyclovir
Description: as §1, §2

UL24R = conditions: Human alphaherpesvirus 2; UL24R on Vero cells, plaques after 72 hours; read-out: IC50 (50% inhibitory concentration) of acyclovir
Description: as §1, §2

Measured: IC50

Nc1nc2c(ncn2COCCO)c(=O)[nH]1 [acyclovir]
~3000 nM: HSV-2 186 | UL24Δ | UL24R

From patent publication US20080089910A1, “Attenuated Herpes Simplex Virus Type-2, Vectors Thereof and Immunogenic Compositions Thereof” (priority 2004, published 2008)
